According to patent US20230014137A1, “COMPOUND HAVING LYSOPHOSPHATIDIC ACID RECEPTOR AGONIST ACTIVITY AND PHARMACEUTICAL USE THEREOF” (ONO PHARMACEUTICAL CO., LTD., priority 2019, published 2023):

These molecules were tested against T1, human LPA3 receptor (Homo sapiens, UniProt Q9UBY5) (assay: LPA3 agonist activity measurement (Method B): intracellular Ca2+ in LPA1-knockdown CHO cells stably expressing human LPA3 receptor). Settings: LPA1-knockdown CHO cells expressing human LPA3, Ca2+ fluorescence.
T1 construct: expressed in transfected cells; host or cells: CHO cells (Chinese hamster ovary) with the LPA1 receptor knocked down
T1 sequence (Q9UBY5 1-353): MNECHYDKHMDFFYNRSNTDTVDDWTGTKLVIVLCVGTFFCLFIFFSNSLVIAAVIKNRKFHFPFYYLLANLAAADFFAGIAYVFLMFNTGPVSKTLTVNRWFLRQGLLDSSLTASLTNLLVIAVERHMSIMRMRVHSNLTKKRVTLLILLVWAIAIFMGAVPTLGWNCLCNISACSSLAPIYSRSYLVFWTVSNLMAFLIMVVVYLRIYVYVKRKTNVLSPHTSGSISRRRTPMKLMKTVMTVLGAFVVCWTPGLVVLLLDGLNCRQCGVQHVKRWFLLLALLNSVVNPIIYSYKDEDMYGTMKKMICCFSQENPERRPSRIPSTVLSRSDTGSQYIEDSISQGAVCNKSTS
Format: cell-based
Text: (Method B) A cell line stably expressing a human LPA3 receptor using a cell obtained by knocking down an LPA1 receptor of CHO cells of Chinese hamster ovary as a host was subjected to an experiment. The cryopreserved cells were thawed and suspended in loading buffer (Hank's Balanced Salt Solution containing 0.02 mol/L HEPES, 2.5 mmol/L probenecid, 0.1% BSA, 5 μmol/L Fluo-4, Quenching Buffer, Pluronic F-127) so as to be 1×10^5 cells/mL. The plate was allowed to stand under conditions of 5% CO2 and 37° C. for 1 hour, then the buffer was replaced with an assay buffer (Hank's Balanced Salt Solution containing 0.02 mol/L HEPES, 2.5 mmol/L probenecid, 0.1% BSA), and the cells were seeded in a 384 well optical bottom plate (384 Well microplate, low volume, Corning, 3540) at 10 μL/well.
A plate was set in a fluorescent drug screening system (Hamamatsu Photonics K.K.), and after 15 seconds from the start of the measurement, 10 μL of a positive control, the test substance or the cell-added solution containing only DMSO was added thereto, and the measurement was performed for 1 minute. A fluorescence wavelength of 540 nm at an excitation wavelength of 480 nm was measured, and intracellular […] concentration was indicated by fluorescence intensity change.
Agonist action of the test substance was calculated as a ratio increase degree after addition of the test substance when a ratio increase value indicated by the positive control or the cell-added solution containing was added was set to 100%. Further, EC50 value was calculated as a 50% action concentration using Microsoft Excel, from an activity (%) at concentrations before and after agonist activity exceeds 50%.

Row | SMILES | EC50
1 | O=C(O)c1c(CNC2CC2)c2ccccc2n1Cc1ccccc1Cl [Example 2(72), 1-(2-Chlorobenzyl)-3-[(cyclopropylamino)methyl]-1H-indole-2-carboxylic acid] | 100 nM
2 | Cc1ccc(Cn2c(C(=O)NS(C)(=O)=O)c(CNC3CCC3)c3ccccc32)cc1 [Example 19, 3-[(Cyclobutylamino)methyl]-1-(4-methylbenzyl)-N-(methylsulfonyl)-1H-indole-2-carboxamide] | 60 nM
3 | Cc1ccc(Cn2c(C(=O)O)c(CNC3CCC3C)c3ccccc32)cc1 (centres unmarked) [Example 2(46)] | 100 nM
4 | Cc1ccc(Cn2c(C(=O)O)c(CNC3CSC3)c3ccccc32)cc1 [Example 2(71), 1-(4-Methylbenzyl)-3-[(3-thiethanylamino)methyl]-1H-indole-2-carboxylic acid] | 60 nM
5 | O=C(O)c1c(CNC2CCC2)c2ccccc2n1Cc1ccccc1OC(F)F [Example 2(53), 3-[(Cyclobutylamino)methyl]-1-[2-(difluoromethoxy)benzyl]-1H-indole-2-carboxylic acid] | 100 nM
6 | Cc1ccc(Cn2c(C(=O)O)c(CNC3CCC3)c3cccc(C#N)c32)cc1 [Example 9(1), 7-Cyano-3-[(cyclobutylamino)methyl]-1-(4-methylbenzyl)-1H-indole-2-carboxylic acid] | 200 nM
7 | Cc1ccc(Cn2c(C(=O)O)c(CNC3CCC3)c3cccnc32)cc1 [Example 2(49), 3-[(Cyclobutylamino)methyl]-1-(4-methylbenzyl)-1H-pyrrolo[2,3-b]pyridine-2-carboxylic acid] | 100 nM

Now from value to molecule:

Row | EC50 | SMILES
8 | 200 nM | O=C(O)c1c(CNC2CCC2)c2ccccc2n1CC1CC1(F)F (centres unmarked) [Example 1(3), 3-[(Cyclobutylamino)methyl]-1-[(2,2-difluorocyclopropyl)methyl]-1H-indole-2-carboxylic acid]
9 | 30 nM | O=C(O)c1c(CNC2CCC2)c2ccccc2n1Cc1cccs1 [Example 2(74), 3-[(Cyclobutylamino)methyl]-1-(2-thienylmethyl)-1H-indole-2-carboxylic acid]
10 | 40 nM | O=C(O)c1c(CNC2CCC2)c2ccccc2n1Cc1cccc(C2CC2)c1 [Example 2(41), 3-[(Cyclobutylamino)methyl]-1-(3-cyclopropylbenzyl)-1H-indole-2-carboxylic acid]
11 | 50 nM | O=C(O)c1c(CNC2CCC2)c2ccccc2n1Cc1ccccc1Cl [Example 2(6), 1-(2-Chlorobenzyl)-3-[(cyclobutylamino)methyl]-1H-indole-2-carboxylic acid]
12 | 600 nM | CCn1c(C(=O)O)c(CNC2CCC2)c2ccccc21 [Example 1(4), 3-[(Cyclobutylamino)methyl]-1-ethyl-1H-indole-2-carboxylic acid]
13 | 200 nM | O=C(O)c1c(CNC2CCCC2)c2ccccc2n1Cc1ccccc1Cl [Example 2(70), 1-(2-Chlorobenzyl)-3-[(cyclopentylamino)methyl]-1H-indole-2-carboxylic acid]
14 | 60 nM | CSc1ccccc1Cn1c(C(=O)O)c(CNC2CCC2)c2ccccc21 [Example 2(75), 3-[(Cyclobutylamino)methyl]-1-[2-(methylthio)benzyl]-1H-indole-2-carboxylic acid]

The molecules below were run against T1, human LPA3 receptor (assay: LPA3 agonist activity measurement (Method A): intracellular Ca2+ in RH7777 cells stably expressing human LPA3 receptor). Settings: RH7777 cells expressing human LPA3, Ca2+ fluorescence.
Format: cell-based
Protocol: (Method A) Using RH7777 cells derived from rat hepatocellular carcinoma as a host, each cell line (Multispan, Inc., Cat No. C1048-6, C1050-6, and C1053-6) stably expressing a human LPA3 receptor was subjected to an experiment. The cells cultured until reaching subconfluence were detached, and suspended in a medium (DMEM containing 10% FBS, 1% penicillin/streptomycin, 30 μg/mL puromycin) so as to be 4×10^5 cells/mL. The cells were seeded in a 96 well optical bottom plate (Asahi Techno Glass, MT4940-010) at 100 μL/well, and cultured under conditions of 5% CO2 and 37° C. for 1 day.
On the day of measurement, the medium was removed, and a medium containing 0.2% FBS was added at 100 μL/well, and cultured for 4 to 6 hours. Thereafter, the medium was removed, and an assay buffer (Hank's Balanced Salt Solution containing 0.02 mol/L HEPES, 2.5 mmol/L probenecid, 0.1% BSA, 5 μmol/L Fluo-4, Quenching Buffer, Pluronic F-127) was added at 100 μL/well, and the cells were incubated with 5% CO2 at 37° C. for about 1 hour. The plate was set in a fluorescent drug screening system (Hamamatsu Photonics K.K.), and after 30 seconds from the start of measurement, 25 μL of a cell-added solution containing only a test substance or dimethyl sulfoxide (hereinafter, it is abbreviated as DMSO.) was added thereto. After 3 minutes, 25 μL of a ligand was further added thereto, and then measurement was performed for 4 minutes. A fluorescence wavelength of 540 nm at an excitation wavelength of 480 nm was measured, and intracellular Ca^2+ concentration was indicated by fluorescence intensity change.
Agonist action of the test substance was calculated as a ratio increase degree after addition of the test substance when a ratio increase value indicated by cells to which a cell-added solution containing only DMSO was added at the time of ligand addition was set to 100%. Further, EC50 value was calculated as a 50% action concentration using Microsoft Excel, from an activity (%) at concentrations before and after agonist activity exceeds 50%.

Row | SMILES | EC50
15 | C=Cc1c(CNC2CCC2)c(C(=O)O)n(Cc2ccc(C)cc2)c1C [Example 6(7), 3-[(Cyclobutylamino)methyl]-5-methyl-1-(4-methylbenzyl)-4-vinyl-1H-pyrrole-2-carboxylic acid] | 1000 nM
16 | Cc1ccc(Cn2c3c(c(CNC4CCC4)c2C(=O)O)CCCC3)cc1 [Example 7, 3-[(Cyclobutylamino)methyl]-1-(4-methylbenzyl)-4,5,6,7-tetrahydro-1H-indole-2-carboxylic acid] | 100 nM
17 | Cc1ccc(Cn2c(C)c(-c3cccc(F)c3)c(CNC3CCC3)c2C(=O)O)cc1 [Example 6(2), 3-[(Cyclobutylamino)methyl]-4-(3-fluorophenyl)-5-methyl-1-(4-methylbenzyl)-1H-pyrrole-2-carboxylic acid] | 900 nM
18 | Cc1ccc(Cn2c(C(=O)O)c(C(C)NC3CCC3)c3ccccc32)cc1 (centres unmarked) [Example 5, 3-[1-(Cyclobutylamino)ethyl]-1-(4-methylbenzyl)-1H-indole-2-carboxylic acid] | 100 nM
19 | Cc1ccc(Cn2c(Br)c(C)c(CNC3CCC3)c2C(=O)O)cc1 [Example 2(34), 5-Bromo-3-[(cyclobutylamino)methyl]-4-methyl-1-(4-methylbenzyl)-1H-pyrrole-2-carboxylic acid] | 40 nM

Continued, values first:

Row | EC50 | SMILES
20 | 500 nM | O=C(O)c1c(CNC2CCC2)c2ccccc2n1CC1CC1(F)F (centres unmarked) [Example 1(3), 3-[(Cyclobutylamino)methyl]-1-[(2,2-difluorocyclopropyl)methyl]-1H-indole-2-carboxylic acid]
21 | 60 nM | Cc1ccc(Cn2c(C(=O)O)c(CNC3CCC3)c3ccccc32)cc1 [Example 2, 3-[(Cyclobutylamino)methyl]-1-(4-methylbenzyl)-1H-indole-2-carboxylic acid]
22 | 600 nM | CCn1c(C(=O)O)c(CNC2CCC2)c2ccccc21 [Example 1(4), 3-[(Cyclobutylamino)methyl]-1-ethyl-1H-indole-2-carboxylic acid]
23 | 1000 nM | Cc1ccc(Cn2c(C(=O)O)c(CNC3CC3)c3ccccc32)cc1 [Example 2(18), 3-[(Cyclopropylamino)methyl]-1-(4-methylbenzyl)-1H-indole-2-carboxylic acid]
